According to ChEMBL document CHEMBL4004889, “Discovery of selective ATP-competitive eIF4A3 inhibitors” (Bioorg Med Chem, 2017):

Experiments:
[1] = biological target: T1, Eukaryotic initiation factor 4A-III (Homo sapiens, UniProt P38919); experiment: Inhibition of MLN51-induced full length recombinant human N-terminal His6/SUMO-tagged eIF4A3 RNA dependent ATPase activity expressed in Escherichia coli BL21(DE3) using 60 ug/ml single stranded poly(U) RNA as substrate after 30 mins by ADP-Glo luminescence assay
[2] = biological target: Eukaryotic initiation factor 4A-I (Homo sapiens, UniProt P60842); experiment: Inhibition of eIF4G-induced full length recombinant human N-terminal His6/SUMO-tagged eIF4A1 RNA dependent ATPase activity expressed in Escherichia coli BL21(DE3) using single stranded poly(U) RNA as substrate after 40 mins by ADP-Glo luminescence assay
[3] = biological target: Eukaryotic initiation factor 4A-II (Homo sapiens, UniProt Q14240); experiment: Inhibition of eIF4G-induced eIF4A2 (unknown origin) RNA dependent ATPase activity expressed in Escherichia coli BL21(DE3) using single stranded poly(U) RNA as substrate after 40 mins by ADP-Glo luminescence assay
[4] = biological target: T2, ATP-dependent RNA helicase DHX29 (Homo sapiens, UniProt Q7Z478); experiment: Inhibition of full length recombinant human N-terminal FLAG-His-tagged DHX29 RNA dependent ATPase activity expressed in baculovirus infected Sf9 insect cells using single stranded poly(U) RNA as substrate after 30 mins by ADP-Glo luminescence assay
T2 sequence (Q7Z478 whole entry): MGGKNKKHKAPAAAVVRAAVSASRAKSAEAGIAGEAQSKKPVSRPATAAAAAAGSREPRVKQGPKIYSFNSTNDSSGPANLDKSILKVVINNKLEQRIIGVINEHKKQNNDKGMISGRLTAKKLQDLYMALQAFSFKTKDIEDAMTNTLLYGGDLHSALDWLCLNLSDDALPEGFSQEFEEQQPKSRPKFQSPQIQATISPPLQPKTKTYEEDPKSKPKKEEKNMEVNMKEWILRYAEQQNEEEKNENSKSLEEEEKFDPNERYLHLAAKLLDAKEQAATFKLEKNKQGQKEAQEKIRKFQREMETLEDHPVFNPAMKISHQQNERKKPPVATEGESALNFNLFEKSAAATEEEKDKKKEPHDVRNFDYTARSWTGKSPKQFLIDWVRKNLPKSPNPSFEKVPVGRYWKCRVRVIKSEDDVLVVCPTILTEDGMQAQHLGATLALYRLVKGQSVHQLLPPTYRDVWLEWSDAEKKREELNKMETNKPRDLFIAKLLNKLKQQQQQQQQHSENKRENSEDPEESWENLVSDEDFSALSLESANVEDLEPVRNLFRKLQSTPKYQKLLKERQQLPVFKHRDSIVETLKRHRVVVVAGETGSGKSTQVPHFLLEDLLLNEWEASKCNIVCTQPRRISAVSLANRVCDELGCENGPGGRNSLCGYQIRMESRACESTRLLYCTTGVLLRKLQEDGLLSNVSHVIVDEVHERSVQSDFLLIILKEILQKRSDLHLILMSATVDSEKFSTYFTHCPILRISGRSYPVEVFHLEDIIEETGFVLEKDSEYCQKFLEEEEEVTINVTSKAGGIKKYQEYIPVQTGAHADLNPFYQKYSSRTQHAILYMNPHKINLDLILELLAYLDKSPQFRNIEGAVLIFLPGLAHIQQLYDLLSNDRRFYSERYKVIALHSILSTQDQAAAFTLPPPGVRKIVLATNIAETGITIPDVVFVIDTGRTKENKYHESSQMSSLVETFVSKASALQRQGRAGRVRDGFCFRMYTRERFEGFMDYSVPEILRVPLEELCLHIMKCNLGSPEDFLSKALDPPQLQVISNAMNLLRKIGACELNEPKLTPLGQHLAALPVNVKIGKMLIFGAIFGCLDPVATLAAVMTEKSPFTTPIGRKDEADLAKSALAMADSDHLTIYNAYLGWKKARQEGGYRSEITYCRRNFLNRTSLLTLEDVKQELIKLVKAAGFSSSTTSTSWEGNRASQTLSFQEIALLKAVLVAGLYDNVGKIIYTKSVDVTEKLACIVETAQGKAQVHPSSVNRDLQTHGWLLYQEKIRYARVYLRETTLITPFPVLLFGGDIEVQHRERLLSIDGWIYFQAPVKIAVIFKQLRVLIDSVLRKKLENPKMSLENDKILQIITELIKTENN

[5] = biological target: U5 small nuclear ribonucleoprotein 200 kDa helicase (Homo sapiens, UniProt O75643); experiment: Inhibition of full length recombinant human N-terminal His-tagged BRR2 RNA dependent ATPase activity expressed in baculovirus infected Sf9 insect cells using single stranded poly(U) RNA as substrate after 30 mins by ADP-Glo luminescence assay
[6] = biological target: T1, Eukaryotic initiation factor 4A-III; experiment: ATP competitive inhibition of MLN51-induced full length recombinant human N-terminal His6/SUMO-tagged eIF4A3 expressed in Escherichia coli BL21(DE3) using varying ATP levels after 30 mins by ADP-Glo luminescence assay
[7] = biological target: T1, Eukaryotic initiation factor 4A-III; experiment: Inhibition of MLN51-induced full length recombinant human N-terminal His6/SUMO-tagged eIF4A3 expressed in Escherichia coli BL21(DE3) using 1.5 ug/ml single stranded poly(U) RNA after 45 mins by ADP-Glo luminescence assay
[8] = biological target: T1, Eukaryotic initiation factor 4A-III; experiment: Binding affinity to full length recombinant human N-terminal His6/SUMO-tagged eIF4A3 expressed in Escherichia coli BL21(DE3) by isothermal titration calorimetric method
[9] = biological target: T1, Eukaryotic initiation factor 4A-III; experiment: Binding affinity to full length recombinant human N-terminal His6/SUMO-tagged eIF4A3 expressed in Escherichia coli BL21(DE3) administered for 60 to 120 secs by surface plasmon resonance biosensing assay
[10] = biological target: T1, Eukaryotic initiation factor 4A-III
Description: Binding affinity to full length recombinant human N-terminal His6/SUMO-tagged eIF4A3 expressed in Escherichia coli BL21(DE3) assessed as change in enthalpy by isothermal titration calorimetric method

[11] = biological target: T1, Eukaryotic initiation factor 4A-III; remark: listed apart in the source
Description: Binding affinity to full length recombinant human N-terminal His6/SUMO-tagged eIF4A3 expressed in Escherichia coli BL21(DE3) assessed as dissociation half-life administered for 60 to 120 secs by surface plasmon resonance biosensing assay

[12] = biological target: T1, Eukaryotic initiation factor 4A-III; remark: listed apart in the source
Description: Binding affinity to full length recombinant human N-terminal His6/SUMO-tagged eIF4A3 expressed in Escherichia coli BL21(DE3) assessed as change in Gibbs free energy by isothermal titration calorimetric method

[13] = biological target: T1, Eukaryotic initiation factor 4A-III; remark: listed apart in the source
Description: Binding affinity to full length recombinant human N-terminal His6/SUMO-tagged eIF4A3 expressed in Escherichia coli BL21(DE3) assessed as change in entropy by isothermal titration calorimetric method

T1 sequence (P38919 whole entry): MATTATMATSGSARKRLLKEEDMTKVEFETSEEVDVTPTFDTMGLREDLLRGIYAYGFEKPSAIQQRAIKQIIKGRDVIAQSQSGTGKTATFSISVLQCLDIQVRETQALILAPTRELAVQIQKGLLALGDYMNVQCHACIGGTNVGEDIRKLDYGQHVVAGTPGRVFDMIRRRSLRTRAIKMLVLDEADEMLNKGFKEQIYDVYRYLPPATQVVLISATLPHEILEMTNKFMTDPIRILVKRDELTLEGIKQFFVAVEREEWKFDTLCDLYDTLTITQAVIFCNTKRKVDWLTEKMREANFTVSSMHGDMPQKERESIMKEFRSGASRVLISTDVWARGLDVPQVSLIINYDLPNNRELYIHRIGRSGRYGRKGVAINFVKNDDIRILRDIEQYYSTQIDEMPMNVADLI
Sequence of Eukaryotic initiation factor 4A-I (P60842 whole entry): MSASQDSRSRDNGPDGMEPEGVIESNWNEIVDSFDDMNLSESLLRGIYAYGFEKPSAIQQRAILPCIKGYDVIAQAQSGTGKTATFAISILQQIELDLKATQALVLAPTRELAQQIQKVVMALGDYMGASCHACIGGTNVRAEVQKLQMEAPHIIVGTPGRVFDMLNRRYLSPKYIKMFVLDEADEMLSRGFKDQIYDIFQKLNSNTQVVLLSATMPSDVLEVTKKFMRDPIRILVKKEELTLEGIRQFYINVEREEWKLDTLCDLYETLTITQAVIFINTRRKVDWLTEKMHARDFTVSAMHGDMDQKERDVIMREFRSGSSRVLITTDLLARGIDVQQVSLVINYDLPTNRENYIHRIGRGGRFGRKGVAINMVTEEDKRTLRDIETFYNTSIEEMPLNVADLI
Sequence of Eukaryotic initiation factor 4A-II (Q14240 whole entry): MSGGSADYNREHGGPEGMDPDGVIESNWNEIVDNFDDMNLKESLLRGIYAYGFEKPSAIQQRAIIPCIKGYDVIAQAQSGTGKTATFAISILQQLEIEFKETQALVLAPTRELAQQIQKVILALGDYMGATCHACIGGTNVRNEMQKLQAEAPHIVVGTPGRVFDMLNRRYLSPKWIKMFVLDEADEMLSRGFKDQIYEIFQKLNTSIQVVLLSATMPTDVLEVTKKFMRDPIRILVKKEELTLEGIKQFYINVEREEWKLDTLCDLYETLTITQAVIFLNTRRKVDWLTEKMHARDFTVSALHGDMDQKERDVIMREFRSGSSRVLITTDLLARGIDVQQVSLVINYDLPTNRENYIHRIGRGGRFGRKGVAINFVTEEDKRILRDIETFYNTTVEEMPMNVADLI
Sequence of U5 small nuclear ribonucleoprotein 200 kDa helicase (O75643 whole entry): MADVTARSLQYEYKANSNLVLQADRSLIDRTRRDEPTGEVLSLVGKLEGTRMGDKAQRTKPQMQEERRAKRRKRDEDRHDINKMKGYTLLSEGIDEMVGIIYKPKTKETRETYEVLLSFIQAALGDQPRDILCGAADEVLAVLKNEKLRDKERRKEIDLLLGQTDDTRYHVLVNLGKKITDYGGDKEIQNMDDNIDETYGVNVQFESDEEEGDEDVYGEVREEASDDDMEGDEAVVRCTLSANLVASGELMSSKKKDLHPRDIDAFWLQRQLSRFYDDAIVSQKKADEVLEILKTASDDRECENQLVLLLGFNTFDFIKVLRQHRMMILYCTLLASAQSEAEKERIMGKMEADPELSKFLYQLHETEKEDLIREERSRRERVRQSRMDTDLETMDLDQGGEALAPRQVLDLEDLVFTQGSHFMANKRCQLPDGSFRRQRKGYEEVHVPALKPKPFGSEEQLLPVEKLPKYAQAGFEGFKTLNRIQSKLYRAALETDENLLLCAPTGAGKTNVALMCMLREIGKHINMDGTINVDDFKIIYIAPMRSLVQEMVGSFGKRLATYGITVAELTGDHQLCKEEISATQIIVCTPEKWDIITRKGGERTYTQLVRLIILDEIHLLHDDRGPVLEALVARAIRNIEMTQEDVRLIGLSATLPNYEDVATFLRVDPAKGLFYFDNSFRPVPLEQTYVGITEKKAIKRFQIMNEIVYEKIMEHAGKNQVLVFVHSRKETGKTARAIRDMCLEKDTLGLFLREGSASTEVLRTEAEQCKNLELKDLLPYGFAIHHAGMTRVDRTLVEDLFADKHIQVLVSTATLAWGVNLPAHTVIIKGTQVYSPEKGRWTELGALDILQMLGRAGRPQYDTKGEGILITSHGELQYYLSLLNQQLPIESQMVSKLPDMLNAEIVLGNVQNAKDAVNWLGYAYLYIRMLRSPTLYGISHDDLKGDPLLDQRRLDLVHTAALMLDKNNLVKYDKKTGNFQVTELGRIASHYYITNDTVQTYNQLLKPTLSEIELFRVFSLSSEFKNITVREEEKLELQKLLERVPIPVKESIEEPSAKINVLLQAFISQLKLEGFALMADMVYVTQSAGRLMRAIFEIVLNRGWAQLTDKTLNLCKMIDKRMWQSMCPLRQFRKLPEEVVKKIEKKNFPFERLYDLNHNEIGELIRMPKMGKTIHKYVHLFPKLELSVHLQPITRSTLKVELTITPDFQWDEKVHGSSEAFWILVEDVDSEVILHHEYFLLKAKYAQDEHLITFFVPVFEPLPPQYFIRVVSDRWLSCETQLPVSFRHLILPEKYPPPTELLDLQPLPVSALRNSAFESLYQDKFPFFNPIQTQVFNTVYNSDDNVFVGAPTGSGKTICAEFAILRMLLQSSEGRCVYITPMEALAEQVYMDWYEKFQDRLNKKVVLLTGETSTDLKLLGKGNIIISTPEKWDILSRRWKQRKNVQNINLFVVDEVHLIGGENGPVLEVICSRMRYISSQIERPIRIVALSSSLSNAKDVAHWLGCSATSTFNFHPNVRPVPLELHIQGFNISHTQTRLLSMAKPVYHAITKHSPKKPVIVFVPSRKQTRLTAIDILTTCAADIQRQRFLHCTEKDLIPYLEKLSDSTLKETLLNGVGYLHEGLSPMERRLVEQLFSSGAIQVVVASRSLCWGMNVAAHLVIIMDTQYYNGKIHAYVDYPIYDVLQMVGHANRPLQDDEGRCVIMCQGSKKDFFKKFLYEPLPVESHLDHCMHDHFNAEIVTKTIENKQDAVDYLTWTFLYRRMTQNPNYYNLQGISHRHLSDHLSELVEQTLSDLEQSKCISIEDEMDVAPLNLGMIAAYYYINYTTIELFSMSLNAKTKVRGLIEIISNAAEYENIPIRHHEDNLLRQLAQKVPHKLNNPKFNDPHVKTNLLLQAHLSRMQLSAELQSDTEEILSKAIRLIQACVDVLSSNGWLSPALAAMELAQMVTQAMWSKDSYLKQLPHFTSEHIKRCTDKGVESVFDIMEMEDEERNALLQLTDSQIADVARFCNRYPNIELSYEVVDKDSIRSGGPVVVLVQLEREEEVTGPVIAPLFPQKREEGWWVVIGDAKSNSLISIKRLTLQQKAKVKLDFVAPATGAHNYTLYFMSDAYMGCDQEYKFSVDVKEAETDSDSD

SMILES: Cc1ccc2cc(C(=O)O)[nH]c2c1
- IC50 [1]: > 100 µM

SMILES: CC(C)c1cc(Cl)c2cc(C(=O)O)[nH]c2c1F
- IC50 [2]: > 100 µM
- IC50 [1]: 0.97 µM
- IC50 [3]: > 100 µM
- IC50 [4]: > 100 µM
- IC50 [5]: > 100 µM
- Ki [6]: 0.43 µM
- IC50 [7]: 0.36 µM
- Kd [8]: 0.062 µM
- Kd [9]: 0.2 µM
- deltaH [10]: -26 kcal/mol
- T1/2 [11]: 8.9 s
- deltaG [12]: -9.9 kcal/mol
- -TdeltaS [13]: 16.1 kcal/mol

SMILES: O=C(O)c1cc2ccc(Cl)cc2[nH]1
- IC50 [1]: > 100 µM

SMILES: C[C@H]1C[C@@]2(O[C@H]3C[C@H]4[C@@H]5CC[C@H]6C[C@H](O)CC[C@]6(C)[C@H]5[C@@H](O)C[C@]4(C)[C@H]3[C@@]2(C)O)OC1(C)C [HIPPURISTANOL]
- IC50 [2]: 3.1 µM
- IC50 [1]: 40 µM
- IC50 [3]: 18 µM
- IC50 [4]: > 30 µM
- IC50 [5]: > 30 µM
- Kd [9]: 50 µM
- T1/2 [11]: 12.2 s

SMILES: COC(=O)c1cc2ccc(C(C)C)cc2[nH]1
- IC50 [1]: > 100 µM

SMILES: CC(C)c1cc(Cl)c2cc(C(=O)O)[nH]c2c1
- IC50 [2]: > 100 µM
- IC50 [1]: 1.9 µM

SMILES: CC(C)c1ccc2cc(C(=O)O)[nH]c2c1F
- IC50 [2]: > 100 µM
- IC50 [1]: 6.9 µM

SMILES: CC(C)c1ccc2cc(-c3nnn[nH]3)[nH]c2c1
- IC50 [1]: 30 µM

SMILES: CC(C)c1cc2[nH]c(C(=O)O)cc2cc1F
- IC50 [1]: 30 µM

SMILES: CC(C)c1ccc2cc(C(N)=O)[nH]c2c1
- IC50 [1]: > 100 µM

SMILES: CC(C)c1ccc2cc(C(=O)O)n(C)c2c1
- IC50 [1]: > 100 µM

SMILES: CC(C)c1cc(F)c2cc(C(=O)O)[nH]c2c1
- IC50 [1]: 5 µM

SMILES: CC(C)c1cccc2cc(C(=O)O)[nH]c12
- IC50 [1]: > 100 µM

SMILES: CC(C)c1ccc2c(F)c(C(=O)O)[nH]c2c1
- IC50 [1]: 20 µM

SMILES: CC(C)c1ccc2cc(C(=O)O)[nH]c2c1
- IC50 [1]: 27 µM
- Kd [9]: 5.4 µM

SMILES: CCc1ccc2cc(C(=O)O)[nH]c2c1
- IC50 [1]: > 100 µM

SMILES: CC(C)c1ccc2[nH]c(C(=O)O)cc2c1
- IC50 [1]: > 100 µM

SMILES: CC(C)c1ccc2cc(C(=O)O)[nH]c2c1Cl
- IC50 [1]: > 100 µM
